# Measured values published in patent US20180027748A1, “METHOD FOR PRODUCING METABOLITE CAPABLE OF IMPROVING DROUGHT TOLERANCE USING MICROORGANISM, AND METHOD FOR IMPROVING DROUGHT TOLERANCE OF PLANT USING SAID METABOLITE” (priority 2015, published 2018).
# Test system: white radish seeds
# Assay: Drought tolerance test on white radish after removal of aluminum foil
# Format: in vivo
# Details: foil removed, samples A/B/C 10/100/300 μg/mL·agar extract, D 1 μg/mL·agar ABA, dH2O control G 27%
# Protocol: Samples A, B, and C were prepared containing, respectively, 10, 100, and 300 μg/mL·agar of the drought tolerance improving metabolite producing bacterium extract obtained by the method described above. The samples were each dispensed into 10 test tubes.
# ABA standard samples D, E, and F were prepared containing, respectively, 1, 10, and 20 μg/mL·agar of abscisic acid (ABA) as a standard. The samples were each dispensed into 10 test tubes.
# After a culture medium was prepared in each sample, one white radish seed was placed in each test tube. After each test tube was capped with aluminum foil, each seed was germinated in the dark.
# Samples A to C, D and G prepared in test method 1 described above were subjected to a drought tolerance test after the aluminum foil was removed from each test tube.
structure (smiles),measurement,value
"CC1=CC(=O)CC(C)(C)C1(O)/C=C/C(C)=C\C(=O)O (stereo not shown) [Sample D, abscisic acid]",percentage of sound individuals (drought tolerance level),66%
